Values quoted from earlier work in US20040234544A1, “Formulation containing (lyso-)phosphatidylserine for the prevention and treatment of stress states in warm blooded animals” (priority 2001, published 2004).
Like-named read-outs stand apart in the source and are kept apart here.

Assays:
[1] = tested on: rats
[2] = tested on: trained runners; settings: 300 or 600 mg PS per day over 15 days
[3] = tested on: young adults; settings: 300 mg PS per day
[4] = tested on: persons under 40 years; settings: persons under 40 years and persons whose brain function was average for their age

For phosphatidylserine, the “effect in stress-induced behaviour (body temperature)” value ([1]; old rats) is listed as “normalization of body temperature”, the “effect in lesions of the stomach wall” value ([1]; older rats) is listed as “positive effect” and the “effect in lesions of the stomach wall” value ([1]; young rats) is listed as “this effect was not observed”. For the same substance, the “effect against muscle damage” value [2] was “protective effect against muscle damage”, the mood [3] was “positive effect” and the pulse rate [3] was “positive effect”. For the same substance, the subjective stress sensitivity [3] was “positive effect” and the “improvements under PS supplementation” value [4] was “no improvements were observed”.
